“Also recorded” adds a separate entry of the source. Like-named read-outs stand apart in the source and are kept apart here.
How the values were obtained:
S. aureus N315 [1] = assay: Adhesion test: inhibition of adherence of S. aureus N315 on A549 cells; format: cell-based, Staphylococcus aureus; details: for Reduction of adhesion [%]: S. aureus on A549 cells
Procedure: S. aureus (N315) was precultivated on blood agar plates at 37° C. overnight. A colony was picked from the plate with a sterile loop and transferred into 5 ml of BHI medium. The suspension was incubated aerobically at 37° C. for 18 h. After this time the bacterial suspension was centrifugated and the clear medium was decanted off. The pellet was resuspended in PBS and centrifugated again twice. Finally the pellet was resuspended in infection medium at an OD of 1.0 at 600 nm.
Infection medium: Gibco RPMI 1640medium, pH 7.4 (Invitrogen, Carlsbad, USA), containing 1% FBS and 20 mM Hepes.
All media that were used were prewarmed to 37° C. The cell line A-549 was utilized. A-549 cells from a stock that was stored at −196° C. were quickly thawed and suspended in 10 ml of cell culture medium (DMEM (Lonza, Basel, Schweiz) containing 10% FBS (Invitrogen, Carlsbad, USA)). They were cultivated at 37° C. with 10% CO2 in cell culture bottles with a surface of 25 cm^2 under moisture saturation. The next day, the medium was removed and fresh medium was added. The cells were harvested at a confluency state of 80-90% by scrapping them off the bottom of the bottles and pipetting the suspension up and down several times. An aliquot was transferred into a fresh cell culture bottle with fresh medium. After another round of growth to 80-90% confluency the medium was removed and the cell layer was washed with 10 ml of sterile EBSS (Invitrogen). After removing the liquid, 1 ml of a 1% solution of trypsin was evenly distributed over the cell layer. After an incubation for 5 min at 37° C. and a visible detachment of the cell layer, 10 ml of fresh cell culture medium were added, the cells were resuspended and counted in a Neubauer cell counting chamber. A cell density of 100,000 /ml was adjusted and 100 μl of the cell suspension was distributed into the wells of a 96-well microtiter plate. The plate was incubated at 37° C. with 10% CO2 and moisture saturation until the cells had formed an adherent monolayer with 95-100% confluency (4-5 days). The medium was removed by pipetting and 75 μl of fresh infection medium were added to each well, followed by 25 μl of a bacterial suspension (OD600 1.0), together with different concentrations of the test compound. After an incubation time of 60 min at room temperature the medium and non-adherent bacteria were removed with a pipette and the wells were washed three times with PBS.
For fixing the cells a solution of 4% paraformaldehyde in PBS was added and incubated for 20 min at room temperature. After removing the solution and washing the cells with PBS twice, a primary antibody against S. aureus lipoteichoic acid (from rabbit, Acris Antibodies GmbH, Herford) at 1:5000 dilution in 1% BSA-PBS was added (50 μl/Well) and incubated for 45 min at room temperature. During the last 10 min of this incubation an additional 50 μl/well of a solution of DAPI ((4′,6 Diamidino-2-phenylindol)dihydrochloride) in PBS (final concentration 1 μg/ml) was added. After a washing step an incubation with the HRP-conjugated secondary antibody (goat anti rabbit, Dianova) in 1% BSA-PBS for 45 min at room temperature was carried out. For detection of chemiluminescence the BM chemiluminescence ELISA substrate (POD—peroxidase-based secondary detection systems, Roche) was used. Chemiluminescence was determined immediately after addition of the substrate with a chemiluminescence microtiter plate reader.
The detection and quantification of the adherent bacteria can also be carried out with a fluorescence-coupled secondary antibody, for which Alexa Fluor 488 goat anti rabbit at 1:1000 dilution was used. The determination of fluorescence was done after washing with PBS and adding 100 μl PBS per well with a fluorescence microtiter plate reader at 485/530 nm.
Another and very favourable way to quantify the adherent bacteria is the utilization of an automatic microscope.
The procedure is described for the ImageXpress Micro (IXM, Molecular Devices) […]

S. aureus = assay: Influence of ATA on S. aureus already adhering to A549 cells; format: cell-based, Staphylococcus aureus
Procedure: Black bars represent 0.95 μg/ml ATA and white bars represent 2.2 μg/ml. A549 cells were incubated with S. aureus for 1 hour in advance and then ATA was added. Shown are the results for adherence after incubation with ATA for the time period indicated in the graph.
All media that were used were prewarmed to 37° C. The cell line A-549 was utilized. A-549 cells from a stock that was stored at −196° C. were quickly thawed and suspended in 10 ml of cell culture medium (DMEM (Lonza, Basel, Schweiz) containing 10% FBS (Invitrogen, Carlsbad, USA)). They were cultivated at 37° C. with 10% CO2 in cell culture bottles with a surface of 25 cm^2 under moisture saturation. […] After an incubation for 5 min at 37° C. and a visible detachment of the cell layer, 10 ml of fresh cell culture medium were added, the cells were resuspended and counted in a Neubauer cell counting chamber. […]
For fixing the cells a solution of 4% paraformaldehyde in PBS was added and incubated for 20 min at room temperature. […] Chemiluminescence was determined immediately after addition of the substrate with a chemiluminescence microtiter plate reader.
Next, the influence of ATA at two different concentrations corresponding to the IC50 and IC90 values determined in Example 2, on adhering S. aureus cells has been determined. […] The adhesion has been calculated on the basis of 100% adhesion in the absence of ATA.

[2] = test system: different S. aureus isolates (50128509, BH30(04), 50307270, BH30(04) spa, 50046981); assay: Inhibition of adherence of different S. aureus isolates; format: cell-based, Staphylococcus aureus; details: MRSA, rifampicin-resistant, tetracycline resistant and methicillin sensitive isolates
From the text: The inhibitory properties of ATA on different S. aureus isolates have been determined using the following strains: 50128509 (MRSA; source: HZI Braunschweig), BH30(04) (MRSA; biofilm positive; SCCmec type II; MLST type 8; CC8; kindly provided by Prof. Jim O'Gara), 50307270 (rifampicin-resistant; source HZI Braunschweig), BH30(04) spa (tetracycline resistant; kindly provided by Prof. Jim O'Gara), 50046981 (methicllin sensitive; source: HZI Braunschweig).
Adherence has been determined as described above.

MRSA strain N315 = assay: Anti-bacterial activity / growth curves of MRSA strain N315; format: cell-based, Staphylococcus aureus
From the text: That is, it has been recognized that ATA is able to inhibit adherence of bacteria, like S. aureus, including MRSA strains while not showing an anti-bacterial activity.

host cells = assay: Effects on host cells; format: cell-based
S. aureus N315 [3] = assay: Inhibition of adherence of S. aureus N315 on human primary nasal epithelial cells; format: cell-based, Staphylococcus aureus; details: 1 μg/ml ATA
Procedure: The experiments with the human nasal primary cells (HNEPC, Provitro GmbH, Berlin) were used as described for the A-549 cells and used for up to four passages (corresponding to approx. four weeks). For the HNEPC, Airway epithelial cell growth medium (Provitro GmbH, Berlin) was used.
Following the general procedure as described above, the properties of ATA on inhibiting adhesion of S. aureus N315 on human primary epithelial cells was investigated. ATA was added at different concentrations to the culture and adherence was determined as described before. Already a concentration of 1 μg/ml ATA is sufficient to reduce the adherence of S. aureus to about 45%.

[4] = Staphylococcus aureus, N315, A549
[5] = adhesion of S. aureus N315 on A549 cells

Structure (SMILES) | Reduction of adhesion [%] (S. aureus N315 [1]; 100 μM) | IC50 (S. aureus N315 [1]; [4]) [µg/mL] | IC90 (S. aureus N315 [1]; [4]) [µg/mL] | IC10 (S. aureus N315 [1]; [5]) | Reduction of adhesion [%] (S. aureus N315 [1]; ≦50 μM) | percentage of adherence of S. aureus compared to the control with no ATA (S. aureus; 2.2 μg/ml ATA added after 1 hour pre-incubation of A549 cells with S. aureus, after 3 hours) | eradication of S. aureus after adherence to cells (S. aureus; ATA at IC50 and IC90 concentrations added after 1 hour adherence to A549 cells) | inhibitory activity on adherence of different S. aureus strains [2] | anti-bacterial effect (growth curves of MRSA strain N315) (MRSA strain N315; 40 ug/ml, FIG. 6) | influence on growth of the MRSA strain (MRSA strain N315; 48 μg/ml, FIG. 6) | anti-bacterial activity (MRSA strain N315; concentration up to 100 μg/ml) | effects on host cells (host cells) | adherence of S. aureus (S. aureus N315 [3]) | IC50 (S. aureus N315 [1]; adhesion of S. aureus N315 on A549 cells, read-out: IC50) [µM] | IC90 (S. aureus N315 [1]; adhesion of S. aureus N315 on A549 cells, read-out: IC90) [µM]
O=C(O)C1=CC(=C(c2ccc(O)c(C(=O)O)c2)c2ccc(O)c(C(=O)O)c2)C=CC1=O [ATA, aurintricarboxylic acid] | >90 | 0.95 | ~2.2 | ~0.45 µg/mL | >90 | below 40% | potent in eradicating S. aureus after adherence to cells | effective on different types of S. aureus strains | does not have an anti-bacterial effect | does not significantly influence growth | no anti-bacterial activity is present; also recorded: does not show anti-bacterial activity | no remarkable effects have been observed on host cells | about 45% | – | –
Cc1cc(=O)c2c(O)c3c(O)cc(O)c4c5c(O)cc(O)c6c(O)c7c(=O)cc(CO)c8c1c2c(c34)c(c65)c78 [pseudohypericine] | >90 | – | – | 20 µM | 50 | – | – | – | – | – | – | – | – | 51 | 80
